Data from patent US12171229B2, “Heteroaryl-triazole and heteroaryl-tetrazole compounds as pesticides” (BAYER AKTIENGESELLSCHAFT, priority 2018, dated 2024).

How the values were obtained:
Format in all cases: in vivo
Diabrotica balteata = Diabrotica balteata spray test; conditions: Diabrotica balteata, in Triticum aestivum, 168 h, after 7 days, larvae on wheat seeds, read-out: efficacy (seedlings grown up); for pest or weed control at 80 µg/disc, 250 g/ha: 80 μg/well (=250 g/ha); for pest or weed control at 160 µg/disc, 500 g/ha: 160 μg/well (=500 g/ha)
Procedure, shortened: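 Scoring at 7 days compares seedling growth with untreated, uninfested controls (100% = equal growth, 0% = none grown). Wheat seedlings germinated 1 day on agar, 5 per well, received a spray of test solution made in 1000 ppm emulsifier water. Each unit then received 10–20 beetle larvae.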

[1] = tested on: Musca domestica strain WHO-N; test: Musca domestica test (MUSCDO surface treatment & contact assay); conditions: 24 hours after contact, read-out: efficacy (mortality); for mortality at 4 mg/m2: surface concentration 4 mg/m^2, exposure 30 minutes; for mortality at 20 mg/m2: surface concentration 20 mg/m^2, exposure 30 minutes
Procedure: Musca domestica test (MUSCDO surface treatment & contact assay)
Solvent: Aceton+2000 ppm rapeseed oil methyl ester (RME)
In order to produce a sufficient, active ingredient containing solution it is necessary to solve the test compound in the solvent-mix (acetone at 2 mg/ml/RME 2000 ppm). This solution is pipetted onto a glazed tile and after evaporation of the acetone, adult flies of the species Musca domestica strain WHO-N are placed onto the dried surface. The exposure time is 30 minutes.
Mortality in percent (%) is determined 24 hours after contact of the insects to the treated surface. 100% morality means that all tested insects are dead, whereas 0% means that no insect died.

Ctenocephalides felis [2] = test: Ctenocephalides felis oral test; conditions: 48 h, 100 ppm in cattle blood, after 2 days, adult unfed cat fleas
Procedure, shortened: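 Compound dissolved in DMSO and diluted in cattle blood to test concentration, offered to ~20 unfed adult fleas via a parafilm-sealed blood chamber held at 37° C (fleas at room temperature). Kill recorded at 2 days as % mortality.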

[3] = tested on: Aedes aegypti strain MONHEIM; test: Aedes aegypti test (AEDSAE surface treatment & contact assay); conditions: 24 hours after contact, read-out: efficacy (mortality); for mortality at 4 mg/m2: surface concentration 4 mg/m^2, exposure 30 minutes; for mortality at 20 mg/m2: surface concentration 20 mg/m^2, exposure 30 minutes
Procedure, shortened: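 Compound dissolved in acetone (2 mg/ml) with 2000 ppm rapeseed oil methyl ester, applied to glazed tile and dried; adult strain MONHEIM mosquitoes exposed 30 minutes. Percent mortality scored 24 hours after contact.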

Nezara viridula = Nezara viridula spray test; conditions: 96 h, after 4 days, larvae on barley plants
Procedure, shortened: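 Mortality (%) was assessed at day 4, from 0% (no bugs dead) to 100% (all dead). The spray solution was compound diluted to test concentration in water with 1000 ppm emulsifier and applied to barley carrying southern green stink bug larvae.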

Ctenocephalides felis [4] = test: Ctenocephalides felis in-vitro contact test, adult cat flea; conditions: 5 μg/cm^2 (=500 g/ha), after 48 hours, adult cat fleas, read-out: efficacy (fleas dead or moribund)
Procedure, shortened: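 Compound in acetone coated onto inner walls of glass tubes, e.g. 900 ppm giving 5 μg/cm². After drying, 5–10 adult C. felis added per tube and held at room temperature. At 48 h, fleas unable to escape a 45–50 °C heating plate within 5 min scored dead/moribund, giving % efficacy.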

Boophilus microplus = Boophilus microplus injection test; conditions: Rhipicephalus microplus, 168 h; 20 μg/animal injected into the abdomen; adult engorged female ticks; egg deposition after 7 days; read-out: efficacy (infertile eggs)
Procedure, shortened: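 Efficacy, from 0% (all eggs fertile) to 100% (all infertile), was scored on eggs laid by five engorged adult females. Each female was injected intra-abdominally with 1 μl of compound solution in DMSO. Fertile egg laying was checked at 7 days, with uncertain eggs kept until hatching at about 42 days.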

[5] = tested on: Culex quinquefasciatus strain P00; test: Culex quinquefasciatus test (CULXFA surface treatment & contact assay); conditions: 24 hours after contact, read-out: efficacy (mortality); for mortality at 4 mg/m2: surface concentration 4 mg/m^2, exposure 30 minutes; for mortality at 20 mg/m2: surface concentration 20 mg/m^2, exposure 30 minutes
Procedure, shortened: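 Compound dissolved in acetone (2 mg/ml) with 2000 ppm rapeseed oil methyl ester, applied to glazed tile and dried; adult C. quinquefasciatus strain P00 exposed to surface for 30 minutes. Mortality (%) scored 24 hours after contact.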

SMILES | pest or weed control at 80 µg/disc, 250 g/ha (Diabrotica balteata) [%] | pest or weed control at 160 µg/disc, 500 g/ha (Diabrotica balteata) [%] | mortality at 4 mg/m2 [1] [%] | mortality at 20 mg/m2 [1] [%] | mortality at 100 ppm (Ctenocephalides felis [2]) [%] | mortality at 4 mg/m2 [3] [%] | mortality at 20 mg/m2 [3] [%] | mortality at 100 g/ha (Nezara viridula) [%] | mortality at 500 g/ha (Nezara viridula) [%] | pest or weed control at 5 µg/cm2 (Ctenocephalides felis [4]) [%] | pest or weed control at 0.02 mg (Boophilus microplus) [%] | mortality at 4 mg/m2 [5] [%] | mortality at 20 mg/m2 [5] [%]
CC(c1ncnn1-c1ccc(C#N)cn1)N(CC1CC1)C(=O)c1cc(Cl)cc(C(F)(F)F)c1 (stereo not drawn) [Example I-007] | 100 | 100 | 90 to 100 | 90 to 100 | 100 | 90 to 100 | 90 to 100 | 100 | 100 | 100 | 100 | 90 to 100 | 90 to 100
C[C@H](NC(=O)c1cc(Cl)cc(C(F)(F)F)c1)c1ncnn1-c1ccc(C#N)cn1 [Example I-009] | 100 |  | 90 to 100 | 90 to 100 | 100 | 90 to 100 | 90 to 100 |  | 100 | 100 | 100 | 90 to 100 | 
C[C@H](NC(=O)c1cc(Cl)cc(C(F)(F)F)c1)c1ncnn1-c1ncc(Cl)cc1F [Example I-013] | 100 | 100 |  | 90 to 100 | 100 | 90 to 100 | 90 to 100 |  | 100 |  | 100 | 90 to 100 | 90 to 100
C[C@H](NC(=O)c1cc(Cl)cc(C(F)(F)F)c1)c1ncnn1-c1cc(C#N)ccn1 [Example I-015] | 100 |  |  | 90 to 100 | 100 | 90 to 100 | 90 to 100 |  | 100 | 100 | 100 | 90 to 100 | 90 to 100
C[C@H](NC(=O)c1cc(F)cc(C#N)c1)c1ncnn1-c1ccc(C#N)cn1 [Example I-018] | 100 | 100 | 90 to 100 | 90 to 100 | 100 | 90 to 100 | 90 to 100 | 100 | 100 | 100 | 100 | 90 to 100 | 90 to 100
C[C@H](NC(=O)c1cc(F)cc(C(F)(F)F)c1)c1ncnn1-c1ccc(C#N)cn1 [Example I-019] | 100 | 100 | 90 to 100 | 90 to 100 | 100 | 90 to 100 | 90 to 100 |  | 90 | 100 | 100 | 90 to 100 | 90 to 100
C[C@H](NC(=O)c1cc(Cl)cc(C(F)(F)F)c1)c1ncnn1-c1ccc([N+](=O)[O-])cn1 [Example I-028] | 100 | 100 | 90 to 100 | 90 to 100 | 100 | 90 to 100 | 90 to 100 | 100 | 100 |  | 100 | 90 to 100 | 90 to 100
C[C@H](NC(=O)c1cc(Cl)cc(C(F)(F)F)c1)c1ncnn1-c1ccc(NC(=O)C2CC2)cn1 [Example I-034, 3-chloro-N-[(1S)-1-(1-{5-[(cyclopropylcarbonyl)amino]pyridin-2-yl}-1H-1,2,4-triazol-5-yl)ethyl]-5-(trifluoromethyl)benzamide] | 100 | 100 |  | 90 to 100 | 100 | 90 to 100 | 90 to 100 | 100 | 100 | 100 | 100 | 90 to 100 | 90 to 100
C[C@H](NC(=O)c1cc(Cl)cc(OC(F)(F)F)c1)c1ncnn1-c1ccc(C#N)cn1 [Example I-041, 3-chloro-N-{(1S)-1-[1-(5-cyanopyridin-2-yl)-1H-1,2,4-triazol-5-yl]ethyl}-5-(trifluoromethoxy)benzamide] | 100 | 100 | 90 to 100 | 90 to 100 | 100 | 90 to 100 | 90 to 100 | 100 | 100 | 100 | 100 | 90 to 100 | 90 to 100
C[C@H](NC(=O)c1cc(Cl)cc(SC(F)(F)F)c1)c1ncnn1-c1ccc(C#N)cn1 [Example I-042] | 100 | 100 | 90 to 100 | 90 to 100 | 100 | 90 to 100 | 90 to 100 | 100 | 100 | 90 | 100 | 90 to 100 | 90 to 100
C[C@H](NC(=O)c1cc(Cl)cc(Br)c1)c1ncnn1-c1ccc(C#N)cn1 [Example I-046] | 100 | 100 | 90 to 100 | 90 to 100 | 100 | 90 to 100 | 90 to 100 |  |  | 100 | 100 | 90 to 100 | 90 to 100
